Tests used:
[1] = test system: guinea pigs fed on high-fat diet (arteriosclerosis, lesion of the aorta); assay: Aortic lesion area (Sudan IV staining) in guinea pigs fed on high-fat diet; assay type: in vivo; details: end of week 7, x±s
Procedure: 70 SPF healthy guinea pigs (female:male 1:1) having a body weight of 250-300 g, were assigned to 7 groups at random, each group having 10 animals. The groups include (1) a normal control group, fed on basal diet, and allowed to free access to water during experiment;
(2) a high fat control group, fed on high-fat diet, and allowed to free access to water during experiment;
(3) a high fat prevention group, fed on high-fat diet, dosed with 50 mg NMN/kg body weight every day by gavage, and allowed to free access to water during experiment;
(4) a low-dose NMN group, fed on high-fat diet, dosed with 0.5 mg NMN/kg body weight every day by gavage from week 6, and allowed to free access to water during experiment;
(5) a medium-dose NMN group, fed on high-fat diet, dosed with 50 mg NMN/kg body weight every day by gavage from week 6, and allowed to free access to water during experiment;
(6) a high-dose NMN group, fed on high-fat diet, dosed with 100 mg NMN/kg body weight every day by gavage from week 6, and allowed to free access to water during experiment; and (7) a NMN+NR group, fed on high-fat diet, dosed with 50 mg NMN/kg body weight and 5 mg NR/kg body weight every day by gavage from week 6, and allowed to free access to water during experiment.
The formulation of the high-fat diet includes 75% basal diet, 5% cholesterol, and 20% lard oil.
At the end of week 7, all the experimental animals was fasted (allowed to access to water) for 12 hrs and then sacrificed. The aorta was isolated, dissected longitudinally along the midline of the anterior wall, and stained with Sudan IV. […] The lesion area pathologically measured and the total endangium area were quantified, and the degree of arteriosclerosis was expressed by percentages of the lesion area relative to the total endangium area of the aorta.
Statistical analysis: All the experimental data is analyzed by SPSS13.0 Statistics software. The measurement data is expressed as x±s, and t test is applied to check the statistical significance. Where P <0.05, there is statistical significance.

[2] = test system: patients diagnosed as having cardio-cerebrovascular diseases resulting from arteriosclerosis; assay: Clinical trial in patients with cardio-cerebrovascular diseases resulting from arteriosclerosis; assay type: in vivo, human; details: Group A: oral NMN 10 mg/kg body weight every day; for Total effective rate: excluding the withdrawing patients
Procedure: 200 patients (male:female 1:1, aged 35-76 years and 55 years on average, and having a course of disease of the shortest 2 years, the longest 7 years, and 4.8 years on average) diagnosed as having cardio-cerebrovascular diseases resulting from arteriosclerosis were selected at random as subjects for clinical observation. The patients were assigned to a group A and a group B at random, each group having 100 patients.
Group A: The patients were orally administered with NMN at a dosage of 10 mg/kg body weight before or after meals every day, and the diet was controlled as desired.
Group B: The patients were orally administered with NMN at a dosage of 10 mg/kg body weight and with NR at a dosage of 2 mg/kg body weight before or after meals every day, and the diet was controlled as desired.
(1) Obvious effectiveness: The health is built up, the body is powerful, the blood lipid and blood pressure drop to normal levels, the palpitation, chest pain, chest tightness, headache, dizziness, decreased vision, decreased memory, insomnia and dreamful sleep, and other clinical symptoms are obvious alleviated.
(2) Effectiveness: The health is built up, the blood lipid and blood pressure drop slightly, the palpitation, chest pain, chest tightness, headache, dizziness, decreased vision, decreased memory, insomnia and dreamful sleep, and other clinical symptoms are alleviated to some extent.
(3) Ineffectiveness: There is no obvious improvement in the clinical symptoms.

NC(=O)c1ccc[n+]([C@@H]2O[C@H](COP(=O)([O-])O)[C@@H](O)[C@H]2O)c1 [NMN, β-nicotinamide mononucleotide]
Rate of lesion area of aorta (%) ([1]; high fat prevention group: high-fat diet, 50 mg NMN/kg body weight every day by gavage, n=10): 4 ± 1% | Rate of lesion area of aorta (%) ([1]; high-dose group: high-fat diet, 100 mg NMN/kg body weight every day by gavage from week 6): 12 ± 3% | Rate of lesion area of aorta (%) ([1]; low-dose group: high-fat diet, 0.5 mg NMN/kg body weight every day by gavage from week 6): 59 ± 4% | Rate of lesion area of aorta (%) ([1]; medium-dose group: high-fat diet, 50 mg NMN/kg body weight every day by gavage from week 6): 23 ± 2% | Time after administration at which patients with mild disease are cured [2]: 7 days | Patients showing obvious effectiveness ([2]; after 1 month): 67 out of 100 patients | Patients showing effectiveness ([2]; after 1 month, 100 patients): 28 patients | Patients showing ineffectiveness ([2]; after 1 month, 100 patients): 4 patients | Total effective rate ([2]; after 1 month): 96% | Total effective rate ([2]; after 1 month, listed as β-nicotinamide mononucleotide): up to 96%

Reference: US20170165283A1, “USE OF BETA-NICOTINAMIDE MONONUCLEOTIDE IN PREPARATION OF HEALTH-CARE PRODUCTS FOR PREVENTING AND TREATING ARTERIOSCLEROSIS AND CARDIO-CEREBROVASCULAR DISEASES, AND HEALTH-CARE PRODUCT CONTAINING THE SAME” (BONTAC BIO-ENGINEERING (SHENZHEN) CO., LTD, priority 2015, published 2017)
